Data on 13 compounds can be found in patent publication US10336702B2, “Pharmaceutically active compounds” (BERGENBIO ASA, priority 2015, dated 2019).

The target of assay [1] is T1, p-Akt3 in WM115 cells (Homo sapiens, UniProt Q9Y243).
T1 construct: SureFire assays to detect cellular p-Akt1, p-Akt2 and p-Akt3 levels in WM115 cells (Akt2/3) and LNCaP cells (Akt1); endogenous in cells; host or cells: WM115 (ECACC 91061232), insulin-stimulated
Briefly: Phospho-Akt cellular SureFire assay, p-Akt3 in WM115 cells. The conditions noted are these: insulin stimulated, read-out: Biological Assay 2 IC50 (nM) Akt3 WM115. Type of assay: cell-based. In short, it runs like this: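 WM115 cells were serum-reduced to 0.1% FBS, stimulated with 100 nM insulin for 10 min, then exposed to compound (0.3% DMSO) for 15 min at 37 °C. Lysates were assayed for Thr308-phosphorylated Akt3 by AlphaScreen SureFire using an isoform-specific total Akt3 capture antibody. IC50 was derived from a 4-parameter fit.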

In assay [2] the target is T2, p-Akt1 in LNCaP cells (Homo sapiens, UniProt P31749).
T2 construct: SureFire assays to detect cellular p-Akt1, p-Akt2 and p-Akt3 levels in WM115 cells (Akt2/3) and LNCaP cells (Akt1); endogenous in cells; host or cells: LNCaP (ECACC 89110211)
T2 sequence (P31749 whole entry): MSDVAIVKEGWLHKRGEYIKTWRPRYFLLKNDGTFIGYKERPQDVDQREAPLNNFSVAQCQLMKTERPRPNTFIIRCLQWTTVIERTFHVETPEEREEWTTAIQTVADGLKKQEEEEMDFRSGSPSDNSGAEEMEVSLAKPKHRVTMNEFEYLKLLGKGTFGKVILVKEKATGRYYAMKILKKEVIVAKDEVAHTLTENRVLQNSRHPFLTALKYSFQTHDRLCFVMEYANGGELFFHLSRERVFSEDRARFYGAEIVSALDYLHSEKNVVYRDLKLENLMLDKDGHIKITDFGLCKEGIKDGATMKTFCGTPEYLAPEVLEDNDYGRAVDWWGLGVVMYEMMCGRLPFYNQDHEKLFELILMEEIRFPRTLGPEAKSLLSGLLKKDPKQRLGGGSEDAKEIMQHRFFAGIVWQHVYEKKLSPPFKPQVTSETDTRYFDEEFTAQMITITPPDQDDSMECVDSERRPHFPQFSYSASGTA
Description: Phospho-Akt cellular SureFire assay, p-Akt1 in LNCaP cells. Type of assay: cell-based. The conditions noted are these: read-out: Biological Assay 2 IC50 (nM) Akt1 LNCaP. The procedure, abridged: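 LNCaP cells, 5×10^4/well, seeded overnight, switched to 0.1% FBS medium without insulin stimulation, then compound for 15 min at 37 °C (0.3% DMSO). Lysate p-Akt1 (pThr308) by AlphaScreen SureFire, two 2 h incubations at room temperature; IC50 by 4-parameter fit.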

For assay [3], the target named is T3, Akt1 (Homo sapiens, UniProt P31749).
T3 construct: unspecified tag, removed (detagged) (cleaved yes); purchased SignalChem and Proteros (Akt1); Merck Millipore (PDK1) 14-452 (PDK1); none given for Akt1
T3 sequence (P31749 whole entry): as above
Description: Akt activation assay (PDK1-mediated activation, LANCE Ultra crosstide TR-FRET), Akt1. The class given is biochemical. The conditions noted are these: read-out: Biological Assay 1 IC50 (nM) Akt1. The procedure, abridged: (§1)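 Unactivated Akt (5 nM Akt1, 15 or 5 nM Akt2, 3 or 5 nM Akt3, by supplier) preincubated with compound, then activated by 5 nM PDK1 on DOPS/DOPC/PtdIns(3,4,5)P3 vesicles with 100 μM ATP and 100 nM Ulight-crosstide, pH 7.5, 30 min. Eu-anti-phospho-crosstide TR-FRET (665/615 nm); IC50 by 4-parameter fit.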
In general terms: TR-FRET usually uses a lanthanide donor and a delayed reading to cut background.

The target in assay [4] is T4, Akt3 (Homo sapiens, UniProt Q9Y243).
T4 construct: unspecified tag, removed (detagged) (cleaved yes); purchased SignalChem and Proteros (Akt3); Merck Millipore (PDK1) 14-452 (PDK1); none given for Akt3
T4 sequence (Q9Y243 whole entry): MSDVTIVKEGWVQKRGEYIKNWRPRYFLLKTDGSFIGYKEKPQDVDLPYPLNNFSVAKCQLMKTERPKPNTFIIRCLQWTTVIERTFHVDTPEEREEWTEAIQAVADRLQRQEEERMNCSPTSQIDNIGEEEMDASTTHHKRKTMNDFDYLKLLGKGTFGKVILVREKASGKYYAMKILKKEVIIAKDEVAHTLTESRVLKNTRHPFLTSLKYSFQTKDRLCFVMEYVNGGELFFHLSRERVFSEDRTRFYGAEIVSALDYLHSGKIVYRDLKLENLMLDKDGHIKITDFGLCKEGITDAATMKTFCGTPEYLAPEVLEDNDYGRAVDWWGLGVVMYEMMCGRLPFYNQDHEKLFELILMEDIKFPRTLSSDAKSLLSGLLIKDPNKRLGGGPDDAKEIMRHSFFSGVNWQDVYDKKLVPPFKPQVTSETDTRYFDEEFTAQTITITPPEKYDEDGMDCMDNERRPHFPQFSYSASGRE
Description: Akt activation assay (PDK1-mediated activation, LANCE Ultra crosstide TR-FRET), Akt3. The class given is biochemical. The conditions noted are these: read-out: Biological Assay 1 IC50 (nM) Akt3. In short, it runs like this:
as §1

The target of assay [5] is T5, Akt2 (Homo sapiens, UniProt P31751).
T5 construct: unspecified tag, removed (detagged) (cleaved yes); purchased SignalChem and Proteros (Akt2); Merck Millipore (PDK1) 14-452 (PDK1); none given for Akt2
T5 sequence (P31751 whole entry): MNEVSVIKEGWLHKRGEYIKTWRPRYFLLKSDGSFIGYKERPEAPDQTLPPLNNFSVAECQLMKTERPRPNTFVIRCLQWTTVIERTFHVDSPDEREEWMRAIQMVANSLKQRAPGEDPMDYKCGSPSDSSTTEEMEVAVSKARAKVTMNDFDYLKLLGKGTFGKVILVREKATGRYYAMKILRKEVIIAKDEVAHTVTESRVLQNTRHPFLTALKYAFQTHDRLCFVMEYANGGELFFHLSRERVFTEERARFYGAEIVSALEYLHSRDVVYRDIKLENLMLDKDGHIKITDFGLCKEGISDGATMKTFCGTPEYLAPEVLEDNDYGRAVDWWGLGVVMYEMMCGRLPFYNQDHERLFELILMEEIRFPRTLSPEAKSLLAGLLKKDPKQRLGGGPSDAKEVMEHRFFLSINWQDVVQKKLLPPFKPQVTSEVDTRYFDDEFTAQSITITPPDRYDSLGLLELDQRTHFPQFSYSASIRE
Briefly: Akt activation assay (PDK1-mediated activation, LANCE Ultra crosstide TR-FRET), Akt2. Type of assay: biochemical. The conditions noted are these: read-out: Biological Assay 1 IC50 (nM) Akt2. The procedure, abridged:
as §1

Assay [6] concerns the target T6, p-Akt2 in WM115 cells (Homo sapiens, UniProt P31751).
T6 construct: SureFire assays to detect cellular p-Akt1, p-Akt2 and p-Akt3 levels in WM115 cells (Akt2/3) and LNCaP cells (Akt1); endogenous in cells; host or cells: WM115 (ECACC 91061232), insulin-stimulated
Description: Phospho-Akt cellular SureFire assay, p-Akt2 in WM115 cells. The conditions noted are these: insulin stimulated, read-out: Biological Assay 2 IC50 (nM) Akt2 WM115. Type of assay: cell-based. In short, it runs like this: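 WM115 cells in 0.1% FBS medium stimulated 10 min with 100 nM insulin, then exposed to compound for 15 min at 37° C (0.3% DMSO final). Lysates assayed by AlphaScreen with anti-(pThr308)Akt and isoform-specific total Akt2 antibodies; IC50 from 4-parameter fit.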

T1 sequence (Q9Y243 whole entry): as the sequence (Q9Y243 whole entry) above
T6 sequence (P31751 whole entry): as the sequence (P31751 whole entry) above

The term IC50 denotes the concentration that inhibits the measured activity by half. Take `CC(=O)N(C)[C@H]1CC[C@H](CC(=O)Nc2cc(-c3ccsc3)c(-c3ccc(C4(N)CCC4)cc3)cn2)CC1` [Example A64, N-(5-(4-(1-aminocyclobutyl)phenyl)-4-(thiophen-3-yl)pyridin-2-yl)-2-(trans-4-(N-methylacetamido)cyclohexyl)acetamide]: the half-inhibitory concentration (IC50) in assay [1] is 85 nM; in assay [2], > 30000 nM; in assay [3], > 30000 nM; in assay [4], 30 nM; in assay [5], 1400 nM; in assay [6], 1400 nM.

Turning to `NC1(c2ccc(-c3cnc(NC(=O)C[C@H]4CC[C@H](N5CCOC5=O)CC4)cc3-c3ccccc3F)cc2)CCC1` [Example A65, N-(5-(4-(1-aminocyclobutyl)phenyl)-4-(2-fluorophenyl)pyridin-2-yl)-2-(trans-4-(2-oxooxazolidin-3-yl)cyclohexyl)acetamide], the 50% inhibitory concentration (IC50) in assay [1] is 37 nM; in assay [2] it was > 30000 nM; in assay [3], > 30000 nM; in assay [4] it was 17 nM; in assay [5], 270 nM; in assay [6] it was 570 nM.

`COC(=O)N(C)[C@H]1CC[C@H](CC(=O)Nc2cnc(-c3ccc(C(C)(C)N)cc3)c(-c3ccsc3)c2)CC1` [Example A67, Methyl (trans-4-(2-((6-(4-(2-aminopropan-2-yl)phenyl)-5-(thiophen-3-yl)pyridin-3-yl)amino)-2-oxoethyl)cyclohexyl)(methyl)carbamate]: the half-maximal inhibitory concentration (IC50) in assay [1] is 830 nM; in assay [2] it was > 30000 nM; in assay [3] it was > 30000 nM; in assay [4], 200 nM; in assay [5], 8900 nM; in assay [6] it was > 30000 nM.

Take `COC(=O)N(C)[C@H]1CC[C@H](CC(=O)Nc2cc(-c3ccsc3)c(-c3ccc(C(C)(C)N)cc3)nn2)CC1` [Example A69, Methyl (trans-4-(2-((6-(4-(2-aminopropan-2-yl)phenyl)-5-(thiophen-3-yl)pyridazin-3-yl)amino)-2-oxoethyl)cyclohexyl)(methyl)carbamate]: the IC50 was 710 nM in assay [1]; > 30000 nM in assay [2]; > 30000 nM in assay [3]; 220 nM in assay [4]; 12000 nM in assay [5]; > 30000 nM in assay [6].

On to `COC(=O)N(C)[C@H]1CC[C@H](CC(=O)Nc2cc(-c3ccsc3)c(-c3ccc([C@]4(N)C[C@H](F)C4)cc3)nn2)CC1` [Example A70, Methyl (trans-4-(2-((6-(4-(trans-1-amino-3-fluorocyclobutyl)phenyl)-5-(thiophen-3-yl)pyridazin-3-yl)amino)-2-oxoethyl)cyclohexyl)(methyl)carbamate], for which the IC50 in assay [1] is 960 nM; in assay [2] it was > 30000 nM; in assay [3], > 30000 nM; in assay [4] it was 36 nM; in assay [5] it was 1100 nM; in assay [6], > 28000 nM.

Consider `NC1(c2ccc(-c3cnc(NC(=O)C[C@H]4CC[C@H](N5CCCC5=O)CC4)cc3-c3ccccc3)cc2)CCC1` [Example A71, N-(5-(4-(1-aminocyclobutyl)phenyl)-4-phenylpyridin-2-yl)-2-(trans-4-(2-oxopyrrolidin-1-yl)cyclohexyl)acetamide], for which the half-inhibitory concentration (IC50) came to 130 nM in assay [1]; 3400 nM in assay [2]; 7500 nM in assay [3]; 15 nM in assay [4]; 110 nM in assay [5]; 1500 nM in assay [6].

For `CCOC(=O)N(C)[C@H]1CC[C@H](CC(=O)Nc2cc(-c3ccccc3)c(-c3ccc([C@]4(N)C[C@](C)(O)C4)cc3)cn2)CC1` [Example A73, Ethyl (trans-4-(2-((5-(4-(trans-1-amino-3-hydroxy-3-methylcyclobutyl)phenyl)-4-phenylpyridin-2-yl)amino)-2-oxoethyl)cyclohexyl)(methyl)carbamate], the IC50 in assay [1] is 77 nM; in assay [2] it was 2900 nM; in assay [3], 8800 nM; in assay [4], 7 nM; in assay [5], 130 nM; in assay [6], 1200 nM.

On to `CN(C(=O)C1CC1)[C@H]1CC[C@H](CC(=O)Nc2cc(-c3ccccc3)c(-c3ccc([C@]4(N)C[C@](C)(O)C4)cc3)cn2)CC1` [Example A75, N-(trans-4-(2-((5-(4-(trans-1-amino-3-hydroxy-3-methylcyclobutyl)phenyl)-4-phenylpyridin-2-yl)amino)-2-oxoethyl)cyclohexyl)-N-methylcyclopropanecarboxamide], for which the IC50 in assay [1] is 13 nM; in assay [2], 1400 nM; in assay [3] it was 12000 nM; in assay [4], 6 nM; in assay [5] it was 140 nM; in assay [6] it was 320 nM.

`CN(C(=O)C1CC1)[C@H]1CC[C@H](CC(=O)Nc2cc(-c3ccccc3)c(-c3ccc([C@]4(N)C[C@](C)(O)C4)cc3)nn2)CC1` [Example A78, N-(trans-4-(2-((6-(4-(trans-1-amino-3-hydroxy-3-methylcyclobutyl)phenyl)-5-phenylpyridazin-3-yl)amino)-2-oxoethyl)cyclohexyl)-N-methylcyclopropanecarboxamide]: the IC50 in assay [1] came out at 8 nM; in assay [2] it was 1400 nM; in assay [3], 1900 nM; in assay [4], 4 nM; in assay [5] it was 71 nM; in assay [6], 370 nM.

For `CC(C)C(=O)N(C)[C@H]1CC[C@H](CC(=O)Nc2cc(-c3ccccc3)c(-c3ccc([C@]4(N)C[C@](C)(O)C4)cc3)nn2)CC1` [Example A79, N-(trans-4-(2-((6-(4-(trans-1-amino-3-hydroxy-3-methylcyclobutyl)phenyl)-5-phenylpyridazin-3-yl)amino)-2-oxoethyl)cyclohexyl)-N-methylisobutyramide], the IC50 in assay [1] worked out at 10 nM; in assay [2] it was 1900 nM; in assay [3], 3900 nM; in assay [4] it was 4 nM; in assay [5], 63 nM; in assay [6] it was 370 nM.

In the case of `CCOC(=O)N(C)[C@H]1CC[C@H](CC(=O)Nc2cc(-c3ccccc3)c(-c3ccc([C@]4(N)C[C@](C)(O)C4)cc3)nn2)CC1` [Example A80, Ethyl (trans-4-(2-((6-(4-(trans-1-amino-3-hydroxy-3-methylcyclobutyl)phenyl)-5-phenylpyridazin-3-yl)amino)-2-oxoethyl)cyclohexyl)(methyl)carbamate], the IC50 was determined as 10 nM in assay [1]; 2400 nM in assay [2]; 2400 nM in assay [3]; 4 nM in assay [4]; 74 nM in assay [5]; 710 nM in assay [6].

For `CCC(=O)N(C)[C@H]1CC[C@H](CC(=O)Nc2cc(-c3ccccc3)c(-c3ccc(C4(N)CC4)cc3)cn2)CC1` [Example A81, N-(trans-4-(2-((5-(4-(1-aminocyclopropyl)phenyl)-4-phenylpyridin-2-yl)amino)-2-oxoethyl)cyclohexyl)-N-methylpropionamide], the half-inhibitory concentration (IC50) was 390 nM in assay [1]; > 30000 nM in assay [2]; > 30000 nM in assay [3]; 69 nM in assay [4]; 1200 nM in assay [5]; 9100 nM in assay [6].

Consider `C[C@]1(O)C[C@@](N)(c2ccc(-c3cnc(NC(=O)C[C@H]4CC[C@H](N5CCCC5=O)CC4)cc3-c3ccccc3)cc2)C1` [Example A82, N-(5-(4-(trans-1-amino-3-hydroxy-3-methylcyclobutyl)phenyl)-4-phenylpyridin-2-yl)-2-(trans-4-(2-oxopyrrolidin-1-yl)cyclohexyl)acetamide], for which the 50% inhibitory concentration (IC50) was 14 nM in assay [1]; 1800 nM in assay [2]; 3100 nM in assay [3]; 7 nM in assay [4]; 91 nM in assay [5]; 460 nM in assay [6].
